# Laboratory results reported in publication PMC9332833 (Cancers, 2022).
# Columns and labels:
# K562-MDR1 cells [1] = experiment: Annexin V-FITC/PI apoptosis measurement, K562-MDR1; type: cell-based, human; details: 5 µM, 24 h
# Experimental: Cells were seeded in 6-well plates (K562 or K562-MDR1) or in 24-well plates (CD34^+ cells). After 24 h, BK124.1 or DMSO was added. After a further 24 h, cells were stained using the Annexin V-FITC kit for the detection of apoptosis (BD, Franklin Lakes, NJ, USA) and immediately analyzed on a BD FACSCalibur using CellQuest software (BD, Franklin Lakes, NJ, USA). […]
# (§1) incubated overnight at 37 °C and analyzed using an iMark Microp late absorbance reader (Bio-Rad, Hercules, CA, USA). Results were calculated relative to control cells treated with DMSO only.
# (§2) […] CD34+ cells were plated at a concentration of 2.5 × 10^5 cells/mL in a 24-well plate. […] A f t e r a further 24 hours, cells were harvested and stained according to the manufacturer's protocol using the Annexin V-FITC kit for the detection of apoptosis (BD, Franklin Lakes, NJ, USA). Stained cells were immediately analyzed on a BD FACSCalibur using CellQuest softwa re (BD, Franklin Lakes, NJ, USA).
# (§3) Cells were seeded at a concentration of 1-2 × 10^5 cells/mL in a 6-well plate. After 24 hours of pre-incubation, BK124.1 in DMSO was added to the cells (vDMSO/vmedium), and incubated for 24 or 48 hours.
# (§4) After incubation, cells were washed twice with ice-cold PBS (Mg2+ and Ca2+-free), resuspended in ice-cold 70% ethanol, and placed at -20 °C for 24 hours. […]
# (§5) Flow cytometry analysis of CD243 (P-glycoprotein) […]
# K562-MDR1 cells [2] = experiment: P-glycoprotein (CD243)/propidium iodide flow cytometry; type: cell-based, human
# Experimental: BK124.1 or DMSO were added to cells and after 24 h incubation cells were harvested and stained with FITC Mouse Anti-Human P-glycoprotein (CD243) clone 17F9 (BD, Franklin Lakes, NJ, USA) or an appropriate isotype control. Propidium iodide was added to […]. Cells were analyzed on a BD FACSCalibur flow cytometer using CellQuest software (BD, Franklin Lakes, NJ, USA). […]
# Flow cytometry analysis of CD243 (P-glycoprotein)
# Cells were seeded at a concentration of 1-2 × 10^5 cells/mL in a 6- or 24-well plate. After 24 hours of pre-incubation, DMSO or test compounds in DMSO were added. The cells were then incubated for 24 hours. After this time, cells were harvested, washed with 0.5% BSA in PBS (Mg2+ and Ca2+ free), and labeled for 30 minutes on ice with FITC Mouse Anti-Human P-glycoprotein (CD243) clone 17F9 (BD, Franklin Lakes, NJ, USA) or an appropriate isotype control. Following incubation with the antibody, cells were stained with propidium iodide, washed with PBS and a nalyzed on a BD FACSCalibur flow cytometer using CellQuest software (BD, Franklin Lakes, NJ, USA). […]
# K562 cells [3] = experiment: K562 cell cycle analysis; type: cell-based, human; details: 5 µM, after 24 h; lesser extent after 48 h
# Experimental: BK124.1 or DMSO was added to cells and after 24 or 48 h incubation. Cells were fixed and stained with 50 µg/mL propidium iodide (Sigma-Aldrich, St. Louis, MO, USA) with 50 µg/mL DNAse-free RNase. The cell cycle was analyzed on a FACSCalibur cytometer (Becton Dickinson, Franklin Lakes, NJ, USA) using ModFit LT 3.2 software (Verity Software House, Topsham, ME, USA). […]
# as §1, §2, §3, §4, §5
# [4] = Toxicity in Balb/c nude mice; type: in vivo
# Experimental: […] The compound blood concentration was measured 15 min, 6, 12, and 24 h post-injection. For each time point, 4 mice were sacrificed. BK124.1 concentration in the bloodstream was analyzed using mass spectrometry. Toxicology was assessed by examining physiological and morphological changes at the injection site, the appearance of internal organs (liver, heart, kidneys, and spleen), blood tests, body mass, and animal behavior.
# K562 cells [5] = experiment: K562 xenogeneic mouse model, tumor growth; type: in vivo, NSG mice; details: for Tumor weights: mean ± SD, N=4, tumor growth control 9.2±2.1
# Experimental: Statistical analysis was performed using GraphPad Prism version 9.1.0. All in vitro experiments were performed in at least triplicate biological replicates and statistical results are expressed as mean ± standard deviation (SD). Statistical data of animal experiments are expressed as mean ± standard error of the mean (SEM). For experiments involving patients, the normality of the distribution was checked using the Shapiro–Wilk test and the statistical analysis was performed using one-way ANOVA with Dunnett’s post-test * p < 0.05, ** […], *** 0.001 > p > 0.0001, **** p < 0.0001.
# Table S3. […] Control and
# IP, intraperitoneal administration; O, orally
# K562 cells [6] = system: K562 cells; design: method as in PMID 26902600, PMID 31487824; details: chronic myelogenous (CML) K562 cells from blast crisis; cited from earlier work
# HUVEC = system: HUVEC; design: method as in PMID 26902600, PMID 31487824; details: cited from earlier work
compound,measurement,setting,value
"CCC12C(=O)C(CC)(C(c3ccccc3)=C1c1ccccc1)C1C(=O)N(CC(O)CNC(C)C)C(=O)C12 (stereo not shown) [BK124.1, 4-[2-hydroxy-3-(propan-2-ylamino)propyl]-1,7-diethyl-8,9-diphenyl-4-azatricyclo [5.2.1.02,6]dec-8-ene-3,5,10-trione]",Apoptosis,K562-MDR1 cells [1],30.1%
same,"Proportion of K562-MDR1 cells, mean value","K562-MDR1 cells [2]; 5 µM, 24 h, DMSO control 33.6%",68.3%
same,viability at 5 µM,"K562-MDR1 cells [2]; Homo sapiens, 5 µM, 24 h, DMSO control 89.2%, read-out: Living cells (viability), mean value",53.8%
same,MDR1 substrate,K562-MDR1 cells [2]; conclusion from K562-MDR1 data,not a MDR1 substrate
same,Cell cycle effect,K562 cells [3],profound G2/M arrest
same,Toxic effects in weight and internal organs' appearance,[4]; IP 40 mg/kg,some minor toxic effects
same,Toxicity at the injection site,[4]; intravenous administration,some signs of local toxicity in the tail
same,Tumor weights,K562 cells [5]; 20 mg/kg IP daily 14 days,1.6 ± 1.6 g
same,Tumor weights,K562 cells [5]; 30 mg/kg IP daily 14 days,1.9 ± 1.8 g
same,Tumor growth versus control groups,"K562 cells [5]; BK124.1 20 or 30 mg/kg IP, imatinib 100 mg/kg orally, hydroxyurea 500 mg/kg IP, 1 x daily",effectively inhibited
same,Tumor volume,"K562 cells [5]; prolonged treatment (days 4-17), IP 20 or 30 mg/kg, comparable with hydroxyurea or imatinib",significant reduction in tumor volume
same,Toxicity towards human leukemia cells,K562 cells [6],selectively toxic
same,Toxicity to normal cells,HUVEC,non-toxic
